Assay results as given in EP0307172A2, “Improvements in or relating to specific 5-HT3 antagonists” (ELI LILLY AND COMPANY, priority 1987, dated 1989).

Biological target: T1, 5-HT₃ receptor (Rattus norvegicus, UniProt P35563)
T1 construct: from tissue
T1 sequence (P35563 24-483): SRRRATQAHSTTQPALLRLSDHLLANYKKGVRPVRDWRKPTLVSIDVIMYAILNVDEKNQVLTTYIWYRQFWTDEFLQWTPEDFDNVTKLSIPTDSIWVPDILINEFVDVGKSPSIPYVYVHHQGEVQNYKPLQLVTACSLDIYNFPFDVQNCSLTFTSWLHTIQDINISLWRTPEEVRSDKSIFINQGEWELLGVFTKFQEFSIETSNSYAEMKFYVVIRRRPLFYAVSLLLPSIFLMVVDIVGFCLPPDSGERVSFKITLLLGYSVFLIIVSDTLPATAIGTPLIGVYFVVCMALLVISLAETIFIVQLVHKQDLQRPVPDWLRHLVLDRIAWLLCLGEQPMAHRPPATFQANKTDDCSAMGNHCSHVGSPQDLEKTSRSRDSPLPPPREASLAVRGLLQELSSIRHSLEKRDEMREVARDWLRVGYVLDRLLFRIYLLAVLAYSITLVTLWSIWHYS
Assay: Inhibition of serotonin-induced Von Bezold-Jarisch reflex in rats
Format: in vivo
Conditions: rat, iv, 15 minutes prior to 5-HT, read-out: Percent Inhibition of Reflex in Rats; for inhibition at 0.003 mg/kg: 0.003 mg/kg I.V.; for inhibition at 0.001 mg/kg: 0.001 mg/kg I.V.; for inhibition at 0.01 mg/kg: 0.01 mg/kg I.V.; for inhibition at 0.03 mg/kg: 0.03 mg/kg I.V.
Excerpt: The compounds of Formula I of this invention are long-acting, orally effective specific 5-HT₃ receptor antagonists, rendering them useful for the treatment of migraine. Because of this mechanism, the compounds of this invention should also be useful for treating emesis, motion sickness, ischemic bowel disease, diabetic gastric paresis, relaxation of the gastro-intestinal tract for instrumentation, other gastro-intestinal pain following surgery, obstetrics or as in abdominal cramps, and for treating CNS disorders such as schizophrenia and anxiety. The ability of these compounds to antagonize the effects of 5-HT was assessed by their inhibition of the Von Bezold-Jarisch reflex induced by 5-HT injected intravenously into the rat (See Paintal, Physiol. Rev., 53, 159 (1973)). When administered by the intravenous route 15 minutes prior to the administration of 5-HT, the compounds of this invention were effective in inhibiting the serotonin-induced Bezold-Jarisch reflex as summarized in Table 1 below: Table 1

SMILES | inhibition at 0.003 mg/kg [%] | inhibition at 0.001 mg/kg [%] | inhibition at 0.01 mg/kg [%] | inhibition at 0.03 mg/kg [%]
COc1cc2c(c(C(=O)N[C@H]3C[C@H]4CC[C@@H](C3)N4C)c1)OC(C)C2 (mixture of isomers) [Example 27, dl-endo-2,3-dihydro-5-methoxy-2-methyl-N-(8-methyl-8-azabicyclo[3.2.1]oct-3-yl)-7-benzofurancarboxamide (Z)-2-butenedioate] | – | – | 20 | –
CN1[C@@H]2CC[C@H]1C[C@@H](NC(=O)c1cccc3c1OC(C)(C)C3)C2 [Example 17, Endo-2,3-dihydro-2,2-dimethyl-N-(8-methyl-8-azabicyclo[3.2.1]oct-3-yl)-7-benzofurancarboxamide (Z)-2-butenedioate] | -2 | – | 53 | 82
CN1[C@@H]2CC[C@H]1C[C@@H](NC(=O)c1ccc(Cl)c3c1OC(C)(C)C3)C2 [Example 18, Endo-4-chloro-2,3-dihydro-2,2-dimethyl-N-(8-methyl-8-azabicyclo[3.2.1]oct-3-yl)-7-benzofurancarboxamide (Z)-2-butenedioate] | – | – | 1.2 | –
CN1[C@@H]2CC[C@H]1C[C@@H](NC(=O)c1cccc3c1CC(C)(C)O3)C2 [Example 22, Endo-2,3-dihydro-2,2-dimethyl-N-(8-methyl-8-azabicyclo[3.2.1]oct-3-yl)-4-benzofurancarboxamide (Z)-2-butenedioate] | – | – | -4 | –
CN1[C@@H]2CC[C@H]1C[C@@H](NC(=O)c1ccc3c(c1)OC(C)(C)C3)C2 [Example 23, Endo-2,3-dihydro-2,2-dimethyl-N-(8-methyl-8-azabicyclo[3.2.1]oct-3-yl)-6-benzofurancarboxamide (Z)-2-butenedioate] | – | – | -8 | –
Cc1cc2c(c(C(=O)N[C@H]3C[C@H]4CC[C@@H](C3)N4C)c1)OC(C)(C)C2 [Example 21, Endo-2,3-dihydro-2,2,5-trimethyl-N-(8-methyl-8-azabicyclo[3.2.1]oct-3-yl)-7-benzofurancarboxamide (Z)-2-butenedioate] | 11 | 0.3 | 87 | –
CN1[C@@H]2CC[C@H]1C[C@@H](OC(=O)c1cc(Cl)cc3c1OC(C)(C)C3)C2 [Example 25, Endo-5-chloro-2,3-dihydro-2,2-dimethyl-7-benzofurancarboxylic acid, 8-methyl-8-azabicyclo[3.2.1]oct-3-yl ester (Z)-2-butenedioate] | 19 | 10 | 83 | –
CC1(C)Cc2cc(Cl)cc(C(=O)NC3CN4CCC3CC4)c2O1 (centres unmarked) [Example 49, 2,3-Dihydro-5-chloro-2,2-dimethyl-N-(1-azabicyclo[2.2.2]oct-3-yl)-7-benzofurancarboxamide (Z)-2-butenedioate] | 40 | – | 89 | –
CN1[C@@H]2CC[C@H]1C[C@@H](NC(=O)c1cccc3c1SC(C)(C)C3)C2 [Example 16, Endo-2,3-dihydro-2,2-dimethyl-N-(8-methyl-8-azabicyclo[3.2.1]oct-3-yl)benzo[b]thiophene-7-carboxamide (Z)-2-butenedioate] | – | – | 0.1 | –

More lines, now with the values ahead:

inhibition at 0.003 mg/kg [%] | inhibition at 0.001 mg/kg [%] | inhibition at 0.01 mg/kg [%] | inhibition at 0.03 mg/kg [%] | SMILES
-7 | – | – | – | COc1ccc(C(=O)N[C@H]2C[C@H]3CC[C@@H](C2)N3C)c2c1CC(C)(C)O2 [Example 52, Endo-2,3-dihydro-4-methoxy-2,2-dimethyl-N-(8-methyl-8-azabicyclo[3.2.1]oct-3-yl)-7-benzofurancarboxamide (Z)-2-butenedioate]
51 | 6 | 69 | – | CC1Cc2cc(Cl)cc(C(=O)O[C@H]3C[C@H]4CC[C@@H](C3)N4C)c2O1 (mixture of isomers) [Example 34, dl-endo-5-chloro-2,3-dihydro-2-methyl-7-benzofurancarboxylic acid, 8-methyl-8-azabicyclo[3.2.1]oct-3-yl ester (Z)-2-butenedioate]
84 | – | 94 | – | CN1[C@@H]2CCC[C@H]1C[C@@H](NC(=O)c1cc(Cl)cc3c1OC(C)(C)C3)C2 [Example 54]
– | – | 32 | – | CC1Cc2cc(F)cc(C(=O)O[C@H]3C[C@H]4CC[C@@H](C3)N4C)c2O1 (mixture of isomers) [Example 31, dl-endo-5-fluoro-2,3-dihydro-2-methyl-7-benzofurancarboxylic acid, 8-methyl-8-azabicyclo[3.2.1]oct-3-yl ester (Z)-2-butenedioate]
– | – | 4 | – | COc1cc2c(c(C(=O)O[C@H]3C[C@H]4CC[C@@H](C3)N4C)c1)OC(C)C2 (mixture of isomers) [Example 28, dl-endo-2-methyl-5-methoxy-2,3-dihydro-7-benzofurancarboxylic acid, 8-methyl-8-azabicyclo[3.2.1]-oct-3-yl ester (Z)-2-butenedioate]
– | – | 54 | – | CN1[C@@H]2CC[C@H]1C[C@@H](NC(=O)c1cc(O)cc3c1OC(C)(C)C3)C2 [Example 62, Endo-2,3-dihydro-5-hydroxy-2,2-dimethyl-N-(8-methyl-8-azabicyclo[3.2.1]oct-3-yl)-7-benzofurancarboxamide (Z)-2-butenedioate]
– | – | 4 | – | Cc1cc2c(c(C(=O)O[C@H]3C[C@H]4CC[C@@H](C3)N4C)c1)OC(C)(C)C2 [Example 37, Endo-2,3-dihydro-2,2,5-trimethyl-7-benzofurancarboxylic acid, 8-methyl-8-azabicyclo[3.2.1]oct-3-yl ester (Z)-2-butenedioate]
– | – | -4 | – | CN1[C@@H]2CC[C@H]1C[C@@H](OC(=O)c1cc(Cl)c3c(c1)CC(C)(C)O3)C2 [Example 29, Endo-2,2-dimethyl-7-chloro-2,3-dihydro-5-benzofurancarboxylic acid, 8-methyl-8-azabicyclo[3.2.1]oct-3-yl ester (Z)-2-butenedioate]
– | – | -1 | – | COc1cc2c(c(C(=O)N[C@H]3C[C@H]4CC[C@@H](C3)N4C)c1)OC(C)(C)C2 [Example 41, Endo-2,3-dihydro-2,2-dimethyl-5-methoxy-N-(8-methyl-8-azabicyclo[3.2.1]oct-3-yl)-7-benzofurancarboxamide (Z)-2-butenedioate]
30 | – | 91 | – | CN1[C@@H]2CC[C@H]1C[C@@H](NC(=O)c1cc(Cl)cc3c1OC(C)(C)CC3)C2 [Example 61, Endo-2,2-dimethyl-6-chloro-N-(8-methyl-8-azabicyclo[3.2.1]oct-3-yl)-8-chromancarboxamide (Z)-2-butenedioate]
– | – | 31 | – | CC1Cc2cccc(C(=O)O[C@H]3C[C@H]4CC[C@@H](C3)N4C)c2O1 (mixture of isomers) [Example 35, dl-endo-2,3-dihydro-2-methyl-7-benzofurancarboxylic acid, 8-methyl-8-azabicyclo[3.2.1]oct-3-yl ester (Z)-2-butenedioate]
88 | – | – | – | CN1[C@@H]2CCC[C@H]1C[C@@H](NC(=O)c1cccc3c1OC(C)(C)C3)C2 [Example 55, Endo-2,3-dihydro-2,2-dimethyl-N-(9-methyl-9-azabicyclo[3.3.1]non-3-yl)-7-benzofurancarboxamide (Z)-2-butenedioate]
-2 | – | 53 | 82 | CN1[C@@H]2CC[C@H]1C[C@H](NC(=O)c1cccc3c1OC(C)(C)C3)C2 [Example 39, Exo-2,3-dihydro-2,2-dimethyl-N-(8-methyl-8-azabicyclo[3.2.1]oct-3-yl)-7-benzofurancarboxamide (Z)-2-butenedioate]
